# According to patent US8987284B2, “Phosphorus containing quinazoline compounds and methods of use” (Newgen Therapeutics, Inc., priority 2009, dated 2015):
# Read-outs that look alike come from different tables or passages of the source.
# Assays:
# NCI-N87 xenograft = experiment: Anticancer effect against NCI-N87 xenograft; assay type: in vivo, Balb/c nude mice
# Procedure: (§1) NCI-N87 cells were purchased from ATCC, and were cultured in RPMI1640+10% FBS+1% P/S antibiotics. Balb/c nude mice were male, 6-8 week old, and weighed 18^±2 g. The cells were implanted subcutaneously into the nude mice (right flank) with 5.0×10^6 cells in 0.1 ml PBS. When the tumor size reached a volume of 200 (150-200) mm^3, the tumor-bearing nude mice derived from NCI-N87 cells were randomly assigned into four groups (10 mice/group). All groups were dosed oral, BID. One group were dosed with vehicle, one group with Lapatinib (75 mg/kg of free base, in the form of ditosylate monoydrate), and the rest two groups with Example 4 (50, 100 mg/kg, p.o. Bid, respectively). The administration period lasted 4 weeks. The tumor volume were measured twice a week, and the body weight were measured immediately before measuring the tumor volume throughout the whole study. On day 11 after initiation of the treatment, the dosing of Example 4 at 100 mg/kg was suspended, and the dosing of the group was resumed on day 15 at a reduced dose of 75 mg/Kg. […] (See FIG. 1).
# [1] = mouse; cited from earlier work
# [2] = rat; cited from earlier work
# [3] = dog; cited from earlier work
# EGFR kinase = target: T1, EGFR kinase (Homo sapiens, UniProt P00533); experiment: Kinase assay for EGFR (TR-FRET LanthaScreen); assay type: biochemical; settings: % inhibition at 100 nM or IC50 (nM)
# T1 construct: purchased Invitrogen PV3872
# T1 sequence (P00533 25-1210): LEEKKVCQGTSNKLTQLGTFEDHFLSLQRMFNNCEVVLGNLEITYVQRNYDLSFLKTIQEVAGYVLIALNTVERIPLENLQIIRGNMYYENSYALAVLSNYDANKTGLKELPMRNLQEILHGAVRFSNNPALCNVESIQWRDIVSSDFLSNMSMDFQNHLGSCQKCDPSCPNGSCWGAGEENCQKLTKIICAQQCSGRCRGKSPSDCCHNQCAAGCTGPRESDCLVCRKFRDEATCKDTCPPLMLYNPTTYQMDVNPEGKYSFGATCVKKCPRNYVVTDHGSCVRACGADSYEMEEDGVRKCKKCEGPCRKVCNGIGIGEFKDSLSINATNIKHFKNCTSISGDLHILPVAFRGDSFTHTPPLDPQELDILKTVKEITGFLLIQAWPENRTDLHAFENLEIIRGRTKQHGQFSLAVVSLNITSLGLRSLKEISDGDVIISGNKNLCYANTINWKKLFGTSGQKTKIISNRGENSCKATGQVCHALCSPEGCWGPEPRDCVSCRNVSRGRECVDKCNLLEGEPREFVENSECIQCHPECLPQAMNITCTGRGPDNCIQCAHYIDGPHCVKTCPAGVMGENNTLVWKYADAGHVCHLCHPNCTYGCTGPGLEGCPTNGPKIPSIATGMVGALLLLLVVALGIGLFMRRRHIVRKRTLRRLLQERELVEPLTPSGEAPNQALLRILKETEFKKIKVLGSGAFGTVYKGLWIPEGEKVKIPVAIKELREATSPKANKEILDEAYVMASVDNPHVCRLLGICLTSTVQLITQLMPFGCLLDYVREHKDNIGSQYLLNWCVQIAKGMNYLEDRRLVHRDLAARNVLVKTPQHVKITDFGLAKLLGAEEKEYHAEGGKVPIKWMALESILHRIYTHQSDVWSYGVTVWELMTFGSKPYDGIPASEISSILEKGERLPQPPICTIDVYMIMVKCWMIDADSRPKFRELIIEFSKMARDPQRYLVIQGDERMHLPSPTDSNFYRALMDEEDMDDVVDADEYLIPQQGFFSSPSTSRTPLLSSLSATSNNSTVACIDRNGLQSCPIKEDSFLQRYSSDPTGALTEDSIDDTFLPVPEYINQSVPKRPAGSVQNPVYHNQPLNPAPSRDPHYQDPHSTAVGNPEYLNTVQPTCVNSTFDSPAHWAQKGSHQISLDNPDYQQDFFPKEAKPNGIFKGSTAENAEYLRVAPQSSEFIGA
# Procedure: The extent to which the compounds of the present invention modulate EGFR kinase activity can be determined using time-resolved Fret (TR-FRET) assay (LanthaScreen® kinase activity assay, from Invitrogen). The assay employs EGFR kinase (PV3872, Invitrogen), Tb-Py20 antibody (PV3552, Invitrogen) and fluorescein-poly GT (PV3610, In vitrogen)
# The assay is performed in a Black 384-well plate (available from Corning). EGFR kinase (is diluted in TR-FRET Dilution Buffer (PV3189, InVitrogen) at concentration of 0.4 ug/ml as stock solution, and then 2-fold serial diluted. Addition of 1 mM ATP initiated the reaction, and the reaction is incubated for 1 h reaction at room temperature. 10 μL of the Tb-antibody (from Invitrogen)+EDTA (from Invitrogen) solution prepared was added to each well of the assay plate and mix briefly, and incubated for 30 min. The signal is monitored by using M5 microplate reader (Ex=332 nm, Em=488 nm and 518 nm). Each compound is tested in duplicate wells. EGFR without compound is used as control. Staurosporine (available from Sigma) is used as positive control compound. Inhibition was calculated as percentage of the EGFR activity (without compound)
# BT474 cells = experiment: Cell proliferation inhibition assay for BT474 (CCK-8); assay type: cell-based; settings: Homo sapiens, BT-474; 72 h, 8 points
# Procedure: Human breast cancer BT474 cells was cultured in low glucose DMEM (Life Technologies 12320-032) containing 10% fetal bovine serum (FBS) at 37° C. in a humidified 10% CO2, 90% air incubator. Cells were harvested using trypsin/EDTA, counted using a haemocytometer, and plated 10000 cell/well in a 96-well clear tissue culture plate. The cells were incubated for 24 h at 37° C. to allow adherence. A serials of concentrations of each compound (ranging from 30 uM to […], 5-fold dilution) in 96-well plate, and incubated for 72 h. Each concentration was tested in triplicate wells. During the cell proliferation assay, BT474 cells were cultured in low-glucose DMEM containing 5% FBS, 50 ug/ml gentamicin, and 0.3% v/v DMSO. The culture medium was removed via aspiration, and the cell viability was detected by using CCK-8 cell proliferation kit.
# [4] = Pharmacokinetic study in mouse; assay type: in vivo; set-up: clearance: unit not given here; settings: for AUC(0-inf): read-out: AUC0-inf-obs; for half-life: read-out: T½ (converted)
# Procedure: (§2) The dog PK protocol is shown here, while PK study protocol of mouse and rat are similar to dog. Beagle dogs of this study were 6-8 month old and weighed 8 to 10 kg. Example 4 was dissolved in 2% DMA and 98% (40% HP-β-CD in deionized water) to yield concentration at 2 mg/mL for both intravenous (IV, a bolus injection via the lateral tail vein) and oral (PO, via oral gavage) administrations. Blood samples (approximately 1 ml) was collected via cephalic into tubes containing EDTA-K3 anticoagulant pre-dose and post-dose at 5 min, 15 min, 30 min, 1 h, 2 h, 4 h, 6 h, 8 h and 24 h. Blood samples were centrifuged at approximately 8000 rpm for 6 minutes at 2-8° C. and the resulting plasma were separated, labeled and stored frozen at approximately −80° C. Plasma samples analysis was performed by means of LC-MS/MS. The analytical results were confirmed using quality control samples for intra-assay variation.
# [5] = Pharmacokinetic study in rat; assay type: in vivo; set-up: clearance: unit not given here; settings: for AUC(0-inf): read-out: AUC0-inf-obs; for half-life: read-out: T½ (converted)
# Procedure: as §2
# [6] = Pharmacokinetic study in dog; assay type: in vivo, Beagle dogs; set-up: clearance: unit not given here; settings: for AUC(0-inf): read-out: AUC0-inf-obs; for half-life: read-out: T½ (converted)
# Procedure: as §2
# [7] = Body weight change of NCI-N87 xenograft mice; assay type: in vivo, Balb/c nude mice; settings: po
# Procedure: as §1, with “study.” for “study. On day 11 after initiation of the treatment, the dosing of Example 4 at 100 mg/kg was suspended, and the dosing of the group was resumed on day 15 at a reduced dose of 75 mg/Kg.”
# [8] = plasma, IV, 2 mg/Kg, read-out: Vz
structure (smiles),measurement,setting,value
"CS(=O)(=O)CCNCc1ccc(-c2ccc3ncnc(Nc4ccc(OCc5cccc(F)c5)c(Cl)c4)c3c2)o1 [lapatinib, Lapatinib]",tumor growth inhibition rate,"NCI-N87 xenograft; 75 mg/Kg of free base, oral BID, 4 weeks",48%
same,oral bioavailability (F),[1],32%
same,oral bioavailability (F),[2],29%
same,oral bioavailability (F),[3],63%
"CP1(=O)CCN(CC#Cc2ccc3ncnc(Nc4ccc(OCc5cccc(F)c5)c(Cl)c4)c3c2)CC1 [Example 4, N-(3-chloro-4-(3-fluorobenzyloxy)phenyl)-6-(3-(4-methyl-1,4-azaphosphino-1-yl)prop-1-ynyl)quinazolin-4-amine]",EGFR inhibition inhibit % at 100 nM or IC50 (nM),EGFR kinase,"++ (>50% inhibition at 100 nM, or IC50 <100 nM for EGFR or ErbB2 kinases)"
same,IC50,BT474 cells,< 100 nM
same,F,"[4]; PO, 10 mg/Kg",36%
same,AUC(0-t),"[4]; plasma, IV, 2 mg/Kg",5.07 µg·h/mL
same,Cmax,"[4]; plasma, IV, 2 mg/Kg",1.52 µg/mL
same,clearance,"[4]; plasma, IV, 2 mg/Kg",6.5
same,AUC(0-inf),"[4]; plasma, IV, 2 mg/Kg",5.08 µg·h/mL
same,half-life,"[4]; plasma, IV, 2 mg/Kg",0.59 h
same,Vd,[4]; [8],0.33 L
same,AUC(0-t),"[4]; plasma, PO, 10 mg/Kg",8.83 µg·h/mL
same,Cmax,"[4]; plasma, PO, 10 mg/Kg",2.84 µg/mL
same,AUC(0-inf),"[4]; plasma, PO, 10 mg/Kg",9.06 µg·h/mL
same,half-life,"[4]; plasma, PO, 10 mg/Kg",1.41 h
same,F,"[5]; PO, 10 mg/Kg",89.6%
same,AUC(0-t),"[5]; plasma, IV, 2 mg/Kg",2.13 µg·h/mL
same,Cmax,"[5]; plasma, IV, 2 mg/Kg",1.57 µg/mL
same,clearance,"[5]; plasma, IV, 2 mg/Kg",15.3
same,AUC(0-inf),"[5]; plasma, IV, 2 mg/Kg",2.18 µg·h/mL
same,half-life,"[5]; plasma, IV, 2 mg/Kg",19.9 h
same,Vd,[5]; [8],7.92 L
same,AUC(0-t),"[5]; plasma, PO, 10 mg/Kg",9.7 µg·h/mL
same,Cmax,"[5]; plasma, PO, 10 mg/Kg",1.8 µg/mL
same,AUC(0-inf),"[5]; plasma, PO, 10 mg/Kg",9.78 µg·h/mL
same,half-life,"[5]; plasma, PO, 10 mg/Kg",11.5 h
same,F,"[6]; PO, 10 mg/Kg",100%
same,AUC(0-t),"[6]; beagle, plasma, IV, 2 mg/Kg",1.48 µg·h/mL
same,Cmax,"[6]; beagle, plasma, IV, 2 mg/Kg",1.15 µg/mL
same,clearance,"[6]; beagle, plasma, IV, 2 mg/Kg",22.3
same,AUC(0-inf),"[6]; beagle, plasma, IV, 2 mg/Kg",1.49 µg·h/mL
same,half-life,"[6]; beagle, plasma, IV, 2 mg/Kg",2.46 h
same,Vd,"[6]; beagle, plasma, IV, 2 mg/Kg, read-out: Vz",1.44 L
same,AUC(0-t),"[6]; beagle, plasma, PO, 10 mg/Kg",7.64 µg·h/mL
same,Cmax,"[6]; beagle, plasma, PO, 10 mg/Kg",2.38 µg/mL
same,AUC(0-inf),"[6]; beagle, plasma, PO, 10 mg/Kg",7.72 µg·h/mL
same,half-life,"[6]; beagle, plasma, PO, 10 mg/Kg",3.8 h
same,tumor growth inhibition rate,"NCI-N87 xenograft; 50 mg/Kg, p.o. BID, 4 weeks",85%
same,tumor growth inhibition rate,"NCI-N87 xenograft; 100/75 mg/Kg, p.o. BID, 4 weeks (suspended, resumed at 75 mg/Kg)",88%
same,body weight loss (average),"[7]; 100 mg/Kg, bid, day 10",16.9%
same,body weight after dosing suspension and resumption,"[7]; suspension for 3 days, resumed at 75 mg/kg",recovered and remained normal
"Cc1cccc(COc2ccc(Nc3ncnc4ccc(-c5ccc(CN6CCP(C)(=O)CC6)o5)cc34)cc2Cl)[n+]1[O-] [Example 24, 2-((2-chloro-4-(6-(5-((4-methyl-1,4-azaphosphino-1-yl)methyl)furan-2-yl)quinazolin-4-ylamino)phenoxy)methyl)-6-methylpyridine 1-oxide]",EGFR inhibition inhibit % at 100 nM or IC50 (nM),EGFR kinase,"++ (>50% inhibition at 100 nM, or IC50 <100 nM for EGFR or ErbB2 kinases)"
same,IC50,BT474 cells,100 to 1000 nM
"C#Cc1cc(Nc2ncnc3ccc(-c4ccc(CN5CCP(C)(=O)CC5)o4)cc23)ccc1OCc1cccc(F)c1 [Example 23, N-(4-(3-fluorobenzyloxy)-3-ethynylphenyl)-6-(5-((4-methyl-1,4-azaphosphino-1-yl)methyl)furan-2-yl)quinazolin-4-amine]",EGFR inhibition inhibit % at 100 nM or IC50 (nM),EGFR kinase,"++ (>50% inhibition at 100 nM, or IC50 <100 nM for EGFR or ErbB2 kinases)"
same,IC50,BT474 cells,100 to 1000 nM
"CP1(=O)CCN(Cc2ccc(-c3ccc4ncnc(Nc5ccc(OCc6cccc[n+]6[O-])c(Cl)c5)c4c3)o2)CC1 [Example 15, 2-((2-chloro-4-(6-(5-((4-methyl-1,4-azaphosphino-1-yl)methyl)furan-2-yl)quinazolin-4-ylamino)phenoxy)methyl)pyridine 1-oxide]",EGFR inhibition inhibit % at 100 nM or IC50 (nM),EGFR kinase,"++ (>50% inhibition at 100 nM, or IC50 <100 nM for EGFR or ErbB2 kinases)"
same,IC50,BT474 cells,< 100 nM
"CP(C)(=O)CCNCc1ccc(-c2ccc3ncnc(Nc4ccc5c(cnn5Cc5cccc(F)c5)c4)c3c2)o1 [Example 25, 6-(5-((2-(dimethylphosphinoyl)ethylamino)methyl)furan-2-yl)-N-(1-(3-fluorobenzyl)-1H-indazol-5-yl)quinazolin-4-amine]",EGFR inhibition inhibit % at 100 nM or IC50 (nM),EGFR kinase,"++ (>50% inhibition at 100 nM, or IC50 <100 nM for EGFR or ErbB2 kinases)"
same,IC50,BT474 cells,100 to 1000 nM
"CP1(=O)CCN(Cc2ccc(-c3ccc4ncnc(Nc5ccc(OCc6cccc(F)c6)c(Cl)c5)c4c3)o2)CC1 [Example 1, N-(3-chloro-4-(3-fluorobenzyloxy)phenyl)-6-(5-((4-methyl-1,4-azaphosphino-1-yl)methyl)furan-2-yl)quinazolin-4-amine]",EGFR inhibition inhibit % at 100 nM or IC50 (nM),EGFR kinase,"++ (>50% inhibition at 100 nM, or IC50 <100 nM for EGFR or ErbB2 kinases)"
same,IC50,BT474 cells,< 100 nM
